Measured values published in US20070049593A1 (priority 2004, published 2007).
pIC50: −log10 of the molar value. Counter-ions that a name gives are not always drawn.

Each molecule was assayed against T1, HCV polymerase (Hepatitis C virus genotype 1b, UniProt P26663) (assay: biochemical).
T1 construct: a region encoding NS5B (J Virol 1991 March, 65(3), 1105-13, 544 amino acids after deletion of 47 amino acids on the C-terminal); 6xHis (C); made in house; host or cells: Escherichia coli
Parameters: species or system HCV BK strain
How it was run: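 Recombinant HCV BK-strain NS5B (C-terminal 47 aa deleted, His6-tagged, E. coli), 0.5 μg/ml, run with 5 μg/ml in vitro-transcribed RNA template (polyU/3′X), ATP/GTP/CTP 50 μM, UTP 2 μM plus [3H]UTP, pH 7.5, 25° C, 90 min. TCA-precipitated RNA counted by scintillation; IC50 from activity with vs without compound.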

T1 sequence (P26663 2420-2963): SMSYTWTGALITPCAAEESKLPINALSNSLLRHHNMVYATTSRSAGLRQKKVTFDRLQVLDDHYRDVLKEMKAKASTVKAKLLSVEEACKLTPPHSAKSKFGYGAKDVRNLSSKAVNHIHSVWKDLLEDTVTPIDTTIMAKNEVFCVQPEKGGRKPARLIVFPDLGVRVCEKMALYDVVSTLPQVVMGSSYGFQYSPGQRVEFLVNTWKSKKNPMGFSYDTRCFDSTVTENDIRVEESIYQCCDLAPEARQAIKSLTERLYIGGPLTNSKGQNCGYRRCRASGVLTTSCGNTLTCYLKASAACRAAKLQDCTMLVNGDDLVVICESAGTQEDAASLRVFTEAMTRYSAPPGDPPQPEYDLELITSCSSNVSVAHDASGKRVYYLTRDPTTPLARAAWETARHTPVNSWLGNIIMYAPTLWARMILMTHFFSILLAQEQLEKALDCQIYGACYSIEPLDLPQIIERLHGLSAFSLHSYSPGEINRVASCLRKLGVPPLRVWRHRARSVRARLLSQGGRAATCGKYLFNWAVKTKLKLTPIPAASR

SMILES	pIC50
CC(C)N1CCC(OCCN2CCn3c(c(C4CCCCC4)c4ccc(C(=O)O)cc43)-c3ccc(Cl)cc32)CC1 [Example 1-318, 3-chloro-13-cyclohexyl-5-[2-(1-isopropylpiperidin-4-yloxy)ethyl]-6,7-dihydro-5H-benzo[5,6][1,4]diazepino[7,1-a]indole-10-carboxylic acid dihydrochloride]	> 7.00
CN(CCN1CCn2c(c(C3CCCCC3)c3ccc(C(=O)O)cc32)-c2ccccc21)C1CCCC1 [Example 1-319, 13-cyclohexyl-5-[2-(N-cyclopentyl-N-methylamino)ethyl]-6,7-dihydro-5H-benzo[5,6][1,4]diazepino[7,1-a]indole-10-carboxylic acid]	> 7.00
CC1CCCN(CCCN2CCn3c(c(C4CCCCC4)c4ccc(C(=O)O)cc43)-c3ccc(Cl)cc32)C1 (centres unmarked) [Example 1-320, 3-chloro-13-cyclohexyl-5-[3-(3-methylpiperidin-1-yl)propyl]-6,7-dihydro-5H-benzo[5,6][1,4]diazepino[7,1-a]indole-10-carboxylic acid]	> 7.00
CN(CCN1CCn2c(c(C3CCCCC3)c3ccc(C(=O)O)cc32)-c2ccccc21)C1CCOC1 (centres unmarked) [Example 1-321, 13-cyclohexyl-5-{2-[N-methyl-N-(tetrahydrofuran-3-yl)amino]ethyl}-6,7-dihydro-5H-benzo[5,6][1,4]diazepino[7,1-a]indole-10-carboxylic acid]	> 7.00
CC1CCCCN1CCCN1CCn2c(c(C3CCCCC3)c3ccc(C(=O)O)cc32)-c2ccc(Cl)cc21 (centres unmarked) [Example 1-322, 3-chloro-13-cyclohexyl-5-[3-(2-methylpiperidin-1-yl)propyl]-6,7-dihydro-5H-benzo[5,6][1,4]diazepino[7,1-a]indole-10-carboxylic acid]	> 7.00
CCN1CCCCC1CCN1CCn2c(c(C3CCCCC3)c3ccc(C(=O)O)cc32)-c2ccc(Cl)cc21 (centres unmarked) [Example 1-323, 3-chloro-13-cyclohexyl-5-[2-(1-ethylpiperidin-2-yl)ethyl]-6,7-dihydro-5H-benzo[5,6][1,4]diazepino[7,1-a]indole-10-carboxylic acid dihydrochloride]	> 7.00
CCOC1CCCN(CCN2CCn3c(c(C4CCCCC4)c4ccc(C(=O)O)cc43)-c3ccccc32)C1 (centres unmarked) [Example 1-324, 13-cyclohexyl-5-[2-(3-ethoxypiperidin-1-yl)ethyl]-6,7-dihydro-5H-benzo[5,6][1,4]diazepino[7,1-a]indole-10-carboxylic acid monohydrochloride]	> 7.00
CCOC1CCCN(CCN2CCn3c(c(C4CCCCC4)c4ccc(C(=O)O)cc43)-c3ccc(C)cc32)C1 (centres unmarked) [Example 1-325, 13-cyclohexyl-5-[2-(3-ethoxypiperidin-1-yl)ethyl]-3-methyl-6,7-dihydro-5H-benzo[5,6][1,4]diazepino[7,1-a]indole-10-carboxylic acid monohydrochloride]	> 7.00
CCOC1CCCN(CCN2CCn3c(c(C4CCCCC4)c4ccc(C(=O)O)cc43)-c3ccc(Cl)cc32)C1 (centres unmarked) [Example 1-326, 3-chloro-13-cyclohexyl-5-[2-(3-ethoxypiperidin-1-yl)ethyl]-6,7-dihydro-5H-benzo[5,6][1,4]diazepino[7,1-a]indole-10-carboxylic acid monohydrochloride]	> 7.00
CCC1COCCN1CCN1CCn2c(c(C3CCCCC3)c3ccc(C(=O)O)cc32)-c2ccc(Cl)cc21 (centres unmarked) [Example 1-327, 3-chloro-13-cyclohexyl-5-[2-(3-ethylmorpholin-4-yl)ethyl]-6,7-dihydro-5H-benzo[5,6][1,4]diazepino[7,1-a]indole-10-carboxylic acid dihydrochloride]	> 7.00
CC1CN(CCN2CCn3c(c(C4CCCCC4)c4ccc(C(=O)O)cc43)-c3ccc(Cl)cc32)CCO1 (centres unmarked) [Example 1-328, 3-chloro-13-cyclohexyl-5-[2-(2-methylmorpholin-4-yl)ethyl]-6,7-dihydro-5H-benzo[5,6][1,4]diazepino[7,1-a]indole-10-carboxylic acid dihydrochloride]	> 7.00
Cc1ccc2c(c1)N(CCN1CCOC(C)C1)CCn1c-2c(C2CCCCC2)c2ccc(C(=O)O)cc21 (centres unmarked) [Example 1-329, 13-cyclohexyl-3-methyl-5-[2-(2-methylmorpholin-4-yl)ethyl]-6,7-dihydro-5H-benzo[5,6][1,4]diazepino[7,1-a]indole-10-carboxylic acid dihydrochloride]	> 7.00
CNC(=O)N1CCN(CCN2CCn3c(c(C4CCCCC4)c4ccc(C(=O)O)cc43)-c3ccccc32)CC1 [Example 1-330, 13-cyclohexyl-5-[2-(4-methylcarbamoylpiperazin-1-yl)ethyl]-6,7-dihydro-5H-benzo[5,6][1,4]diazepino[7,1-a]indole-10-carboxylic acid dihydrochloride]	> 7.00
CCCC1CCCN(CCN2CCn3c(c(C4CCCCC4)c4ccc(C(=O)O)cc43)-c3ccccc32)C1 (centres unmarked) [Example 1-331, 13-cyclohexyl-5-[2-(3-propylpiperidin-1-yl)ethyl]-6,7-dihydro-5H-benzo[5,6][1,4]diazepino[7,1-a]indole-10-carboxylic acid dihydrochloride]	> 7.00
CCC1CCCCN1CCN1CCn2c(c(C3CCCCC3)c3ccc(C(=O)O)cc32)-c2ccccc21 (centres unmarked) [Example 1-332, 13-cyclohexyl-5-[2-(2-ethylpiperidin-1-yl)ethyl]-6,7-dihydro-5H-benzo[5,6][1,4]diazepino[7,1-a]indole-10-carboxylic acid dihydrochloride]	> 7.00
CCC1CCCCN1CCN1CCn2c(c(C3CCCCC3)c3ccc(C(=O)O)cc32)-c2ccc(C)cc21 (centres unmarked) [Example 1-333, 13-cyclohexyl-5-[2-(2-ethylpiperidin-1-yl)ethyl]-3-methyl-6,7-dihydro-5H-benzo[5,6][1,4]diazepino[7,1-a]indole-10-carboxylic acid dihydrochloride]	> 7.00
CCC1CCCCN1CCN1CCn2c(c(C3CCCCC3)c3ccc(C(=O)O)cc32)-c2ccc(Cl)cc21 (centres unmarked) [Example 1-334, 3-chloro-13-cyclohexyl-5-[2-(2-ethylpiperidin-1-yl)ethyl]-6,7-dihydro-5H-benzo[5,6][1,4]diazepino[7,1-a]indole-10-carboxylic acid dihydrochloride]	> 7.00
CC[C@H]1CCCN(CCN2CCn3c(c(C4CCCCC4)c4ccc(C(=O)O)cc43)-c3ccc(Cl)cc32)C1 [Example 1-335, 3-chloro-13-cyclohexyl-5-[2-((S)-3-ethylpiperidin-1-yl)ethyl]-6,7-dihydro-5H-benzo[5,6][1,4]diazepino[7,1-a]indole-10-carboxylic acid dihydrochloride]	> 7.00
CC[C@@H]1CCCN(CCN2CCn3c(c(C4CCCCC4)c4ccc(C(=O)O)cc43)-c3ccc(Cl)cc32)C1 [Example 1-336, 3-chloro-13-cyclohexyl-5-[2-((R)-3-ethylpiperidin-1-yl)ethyl]-6,7-dihydro-5H-benzo[5,6][1,4]diazepino[7,1-a]indole-10-carboxylic acid dihydrochloride]	> 7.00
CC(C)c1ccc2c(c1)N(CCN1CCCCCC1)CCn1c-2c(C2CCCCC2)c2ccc(C(=O)O)cc21 [Example 1-337, 5-[2-(azepan-1-yl)ethyl]-13-cyclohexyl-3-isopropyl-6,7-dihydro-5H-benzo[5,6][1,4]diazepino[7,1-a]indole-10-carboxylic acid dihydrochloride]	> 7.00
CCc1ccc2c(c1)N(CCN1CCCCCC1)CCn1c-2c(C2CCCCC2)c2ccc(C(=O)O)cc21 [Example 1-338, 5-[2-(azepan-1-yl)ethyl]-13-cyclohexyl-3-ethyl-6,7-dihydro-5H-benzo[5,6][1,4]diazepino[7,1-a]indole-10-carboxylic acid dihydrochloride]	> 7.00
CCc1ccc2c(c1)N(CCN1CCCC(C)C1)CCn1c-2c(C2CCCCC2)c2ccc(C(=O)O)cc21 (centres unmarked) [Example 1-339, 13-cyclohexyl-3-ethyl-5-[2-(3-methylpiperidin-1-yl)ethyl]-6,7-dihydro-5H-benzo[5,6][1,4]diazepino[7,1-a]indole-10-carboxylic acid dihydrochloride]	> 7.00
CC1CCCN(CCN2CCn3c(c(C4CCCCC4)c4ccc(C(=O)O)cc43)-c3ccc(C(C)C)cc32)C1 (centres unmarked) [Example 1-340, 13-cyclohexyl-3-isopropyl-5-[2-(3-methylpiperidin-1-yl)ethyl]-6,7-dihydro-5H-benzo[5,6][1,4]diazepino[7,1-a]indole-10-carboxylic acid dihydrochloride]	> 7.00
CCC1CCCN(CCN2CCn3c(c(C4CCCCC4)c4ccc(C(=O)O)cc43)-c3ccc(C(C)C)cc32)C1 (centres unmarked) [Example 1-341, 13-cyclohexyl-5-[2-(3-ethylpiperidin-1-yl)ethyl]-3-isopropyl-6,7-dihydro-5H-benzo[5,6][1,4]diazepino[7,1-a]indole-10-carboxylic acid dihydrochloride]	> 7.00
O=C(O)c1ccc2c(C3CCCCC3)c3n(c2c1)CCN(CCC1CCCN(C2CC2)C1)c1cc(Cl)ccc1-3 (centres unmarked) [Example 1-342, 3-chloro-13-cyclohexyl-5-[2-(1-cyclopropylpiperidin-3-yl)ethyl]-6,7-dihydro-5H-benzo[5,6][1,4]diazepino[7,1-a]indole-10-carboxylic acid dihydrochloride]	> 7.00
CCCc1ccc2c(c1)N(CCN1CCCCC1)CCn1c-2c(C2CCCCC2)c2ccc(C(=O)O)cc21 [Example 1-343, 13-cyclohexyl-5-[2-(piperidin-1-yl)ethyl]-3-propyl-6,7-dihydro-5H-benzo[5,6][1,4]diazepino[7,1-a]indole-10-carboxylic acid dihydrochloride]	> 7.00
